This is an account of results in publication PMC4080980, “The pharmacokinetics of anthocyanins and their metabolites in humans” (British Journal of Pharmacology, 2014).

What all share (format): in vivo, humans
Series [1] is described as follows: Urinary elimination/recovery after 500 mg oral bolus of 13C5-C3G. Conditions: urine, single 500 mg oral 13C5-C3G; for Tmax: male, human, po, 500 mg, urine collection interval, read-out: Time at maximum concentration; for Total recovery: 0-48 h; for Total recovery / Maximum concentration: mean ± SEM. How it is done:
(§1) A detailed description of the clinical design was previously published ([Czank et al., 2013]). Briefly, a single 500 mg oral bolus dose of isotopically labelled C3G (^13C5-C3G) was fed to eight healthy male participants (body mass index, 18.5–30.5 kg·m^–2; aged 18–45 years) after an overnight fast (>8 h). Participants provided blood (baseline, 0.5, 1, 2, 4, 6, 24, 48 h), urine (individual voids between 0 and 6 h, total voids between 6–24 and 24–48 h), breath (baseline, 0.5, 1, 2, 4, 6, 24, 48 h) and faecal samples (all voids between 0–6, 6–24 and 24–48 h). The study was conducted at the Clinical Research and Trials Unit at the University of East Anglia according to the principles expressed in the Declaration of Helsinki and was approved by the Cambridgeshire 3 Research Ethics Committee (REC ref: 10/H0306/42) and registered at clinicaltrials.gov as NCT01106729.
(§2) Serum, urine and faecal samples were extracted by SPE and analysed by HPLC-ESI-MS/MS as recently described ([Czank et al., 2013]). The extraction efficiency was established as 87 ± 11% (coefficient of variation, CV; 6.8 ± 0.7%) for serum, 88 ± 18% (CV, 7.9 ± 0.8%) for urine and 81 ± 21% (CV, 14.1 ± 1.2%) for faeces (n = 3 replicates for each analyte). Sample extracts (5 μL) were injected onto a Kinetex PFP column (Phenomonex) and separated using an Agilent 1200 series HPLC with a QTrap 4000 linear ion trap mass spectrometer (ABSciex, Warrington, UK). […] Metabolite identification was performed by multiple reaction monitoring (MRM) optimized for the detection of pure standards with m/z of the parent and daughter fragments adjusted to +2,+3,+5 amu to allow identification of the ^13C-labelled metabolites derived from the B-ring, A-ring or the parent structure respectively. Metabolites were confirmed on the basis of retention time (using authentic and synthesized standards where possible) and three or more ion transitions. The HPLC-ESI-MS/MS method was validated for linearity and precision across all metabolites. Six point standard curves ranging from 1.25 to 20 μM were constructed from analytical standards and injected six times. The precision was established as 1.4–11.0% and linearity of the standard curves was established as r^2 = 0.991–1.000 (CV, 0.2%) across the identified metabolites.
(§3) Pharmacokinetic modelling of metabolites in the serum was performed with the PKSolver ‘add-on’ for Excel 2010 (Microsoft, […], USA) ([Zhang et al., 2010]) using non-compartmental analysis with the AUC calculated using the trapezoidal rule. Pharmacokinetic parameters were established for each individual analyte and presented as mean ± SEM. Urine samples collected during the first 6 h post-bolus were grouped together to the nearest hour time point (i.e. samples were not pooled but individual concentrations were averaged post-quantification) for graphical representation and to calculate total cumulative recovery. The concentration of metabolites was converted to amount recovered from urine by accounting for the molecular weight of the individual ^13C-labelled metabolites and the volume of the individual participants void and averaged across participants. Recovery of metabolites in the faeces was established from the molecular weight of the ^13C-labelled metabolite and the weight of the individual participants void adjusting for faecal water content as previously described ([Czank et al., 2013]). Urine and faecal recovery amounts are presented as mean ± SEM (n = 8), unless otherwise stated.

Series [2] can be described thus: Faecal recovery after 500 mg oral bolus of 13C5-C3G. Particulars: faeces, 500 mg oral 13C5-C3G; for Recovery 24–48 h / Recovery 6–24 h: mean ± SEM; for Recovery 0–6 h: 0–6 h (only 2 participants provided voids). How it is done:
The study was conducted at the Clinical Research and Trials Unit at the University of East Anglia according to the principles expressed in the Declaration of Helsinki and was approved by the Cambridgeshire 3 Research Ethics Committee (REC ref: 10/H0306/42) and registered at clinicaltrials.gov as NCT01106729.
Sample extracts (5 μL) were injected onto a Kinetex PFP column (Phenomonex) and separated using an Agilent 1200 series HPLC with a QTrap 4000 linear ion trap mass spectrometer (ABSciex, Warrington, UK). […] Metabolite identification was performed by multiple reaction monitoring (MRM) optimized for the detection of pure standards with m/z of the parent and daughter fragments adjusted to +2,+3,+5 amu to allow identification of the ^13C-labelled metabolites derived from the B-ring, A-ring or the parent structure respectively. […] The HPLC-ESI-MS/MS method was validated for linearity and precision across all metabolites.
Pharmacokinetic parameters were established for each individual analyte and presented as mean ± SEM. Urine samples collected during the first 6 h post-bolus were grouped together to the nearest hour time point (i.e. samples were not pooled but individual concentrations were averaged post-quantification) for graphical representation and to calculate total cumulative recovery. The concentration of metabolites was converted to amount recovered from urine by accounting for the molecular weight of the individual ^13C-labelled metabolites and the volume of the individual participants void and averaged across participants. […] Urine and faecal recovery amounts are presented as mean ± SEM (n = 8), unless otherwise stated.

Series [3] can be described thus: Serum pharmacokinetics after 500 mg oral bolus of 13C5-C3G (HPLC-ESI-MS/MS, non-compartmental analysis). Conditions: for half-life / t1/2: serum elimination half-life; for Cmax: healthy men, mean ± SEM of participants in whom detected; for AUC(0-t): read-out: AUC0-48. How it is done:
as §1, §2, §3

Where [4] appears, read: male, human, serum, po, 500 mg, single 500 mg oral 13C5-C3G, mean ± SEM.
[5] abbreviates: male, human, serum, po, 500 mg, serum, single 500 mg oral 13C5-C3G, mean ± SEM, read-out: tmax.
Where [6] appears, read: male, human, serum, po, 500 mg, single 500 mg oral 13C5-C3G.
The mark [7] stands for this setting: male, human, serum, trapezoidal rule, single 500 mg oral 13C5-C3G, mean ± SEM.
Setting [8] is: single 500 mg oral 13C5-C3G, mean ± SEM.
[9] abbreviates: serum, single 500 mg oral 13C5-C3G, mean ± SEM.

The structures appear in SMILES notation. Marks after values point to notes of the source that are not given here.

Take `O=C(O)c1ccc(O)cc1`: in series [1], the Tmax was 1 to 2 h, the Total recovery turned out to be 13.2 ± 3.7 µg and the Maximum concentration stood at 49 ± 11 nM. Further, the “Recovery 24–48 h” value in series [2] is 22.0 ± 11.6 ^g μg.

Turning to `O=C(O)c1cccc(O)c1O` [2,3-Dihydroxybenzoic acid], in series [2], the “Recovery 24–48 h” value is 440.4 ± 381.8 ^h μg.

For the compound `COc1ccc(C(=O)O)c(O)c1` [2-Hydroxy-4-methoxybenzoic acid], in series [1], the Tmax lay within 3 to 4 h, the Total recovery was determined as 64.6 µg and the Maximum concentration stood at 172 nM. Further, in series [2], the “Recovery 6–24 h” value was 1.4 ^b μg and the “Recovery 24–48 h” value was 273.3 ± 272.7 ^h μg.

For the compound `O=Cc1ccc(O)c(O)c1` [3,4-Dihydroxybenzaldehyde], in series [1], the Tmax lay within 0 to 1 h, the Total recovery stood at 6.3 ± 2.6 µg and the Maximum concentration is recorded as 24 ± 7 nM. Besides, in series [1] (listed as 3,4-dihydroxybenzaldehyde), the Maximum concentration was determined as 24 nM. Further, in series [2], the “Recovery 6–24 h” value is recorded as 3.4 ± 3.8 ^h μg and the “Recovery 24–48 h” value is listed as 5.1 ± 1.8 ^i μg.

As for `O=C(O)Cc1ccc(O)c(O)c1` [3,4-Dihydroxyphenylacetic acid], in series [1], the Tmax lay within 24 to 48 h, the Total recovery stood at 28.0 µg and the Maximum concentration was found to be 82 nM. Further, in series [2], the “Recovery 0–6 h” value is given as 2.0 ^b μg, the “Recovery 6–24 h” value is listed as 10.1 ± 4.0 ^e μg and the “Recovery 24–48 h” value was 12.8 ± 7.5 ^c μg.

For orientation: half-life means the time needed for the level to fall by half in the phase considered. A high value points to slow loss. Usually Cmax stands for the peak of the concentration-time curve. As for `O=Cc1ccc(O)cc1` [4-Hydroxybenzaldehyde], in series [3] (setting [4]), the half-life was 17.9 ± 8.8 h. The Tmax in series [3] (setting [5]) was determined as 5.6 ± 3.1 h. The compound also had a peak concentration (Cmax) in series [3] (setting [6]) of 667 ± 653 nM. In addition, the AUC(0-t) in series [3] (setting [7]) amounted to 0.663 ± 0.505 µM·h. In addition, in series [1], the Tmax lay within 5 to 6 h, the Total recovery amounted to 10.0 ± 9.0 µg and the Maximum concentration was determined as 97 ± 94 nM. Moreover, in series [2], the “Recovery 6–24 h” value is reported as 0.8 ± 0.8 ^h μg and the “Recovery 24–48 h” value is 0.1 ^b μg.

On to `O=C(O)Cc1ccc(O)cc1` [4-Hydroxyphenylacetic acid], for which, in series [1], the Tmax lay within 4 to 5 h, the Total recovery amounted to 50.0 ± 2.0 µg and the Maximum concentration is listed as 391 ± 113 nM. In series [2], the “Recovery 6–24 h” value was 7.3 ^b μg and the “Recovery 24–48 h” value is listed as 55.4 ^b μg.

`COc1ccc(C=O)cc1` [4-Methoxybenzaldehyde]: the “Recovery 6–24 h” value in series [2] is listed as 20.7 ^b μg.

The compound `COc1cc(/C=C/C(=O)O)ccc1O` [A-ring-derived ferulic acid] returned a t1/2 in series [3] (setting [8]) of 96.5 ± 73.4 h. The “Recovery 6–24 h” value in series [2] is 469.7 µg.

Take `O=C(O)c1ccc(OC2OC(C(=O)O)C(O)C(O)C2O)cc1` (stereo not shown) [Benzoic acid-4-glucuronide]: the half-life in series [3] (setting [4]) is 17.1 ± 3 h. The Tmax in series [3] (setting [5]) stood at 10.9 ± 3.4 h. In series [3] (setting [6]), the concentration peaked (Cmax) at 74 ± 20 nM. Also, the AUC(0-t) in series [3] (setting [7]) turned out to be 1.47 ± 0.489 µM·h. Moreover, in series [1], the Tmax is 4 to 5 h, the Total recovery came to 53.1 ± 18.1 µg and the Maximum concentration was found to be 129 ± 47 nM. In series [2], the “Recovery 0–6 h” value is 1.5 ^b μg, the “Recovery 6–24 h” value was 6.8 ± 3.0 ^c μg and the “Recovery 24–48 h” value is 14.8 ± 8.0 ^i μg.

`O=C(O)/C=C/c1ccc(O)c(O)c1` [Caffeic acid]: in series [2], the “Recovery 6–24 h” value is given as 25.2 ^b μg and the “Recovery 24–48 h” value is recorded as 354.6 ± 125.0 ^h μg.

`COc1cc(/C=C/C(=O)O)ccc1O` [Ferulic acid]: the Tmax in series [3] (setting [5]) was approximately 8 h; in series [3] (setting [9]), 8.2 ± 4.1 h. In series [3] (setting [7]), the AUC(0-t) amounted to 1.82 ± 1.05 µM·h. The “time of detection after consumption” value in series [3] (serum and urine samples) was not above 4 h. Also, the “Recovery 6–24 h” value in series [2] (listed as B-ring-derived ferulic acid) worked out at 2373.1 µg.

For `O=C(O)CNC(=O)c1ccccc1` [Hippuric acid], the half-life in series [3] (setting [4]) was 95.6 ± 77.8 h. Also, the Tmax in series [3] (setting [5]) was approximately 16 h; in series [3] (setting [9]), 15.7 ± 4.1 h; in series [1], 6 to 24 h. The compound also came in with a Cmax in series [3] (setting [6]) of 1960 ± 1390 nM. The compound further gave a Total recovery in series [1] of 2415.6 ± 2223.0 µg. In addition, the results for the Maximum concentration in series [1] and in series [1] (listed as hippuric acid) were 5417 ± 4906 nM and 5417 nM, respectively. Moreover, in series [2], the “Recovery 6–24 h” value is listed as 12.0 ± 11.4 ^g μg. In series [2], the “Recovery 24–48 h” value is listed as 27.5 ± 27.4 ^h μg.

Regarding `COc1ccc(C(=O)O)cc1OC1OC(C(=O)O)C(O)C(O)C1O` (stereo not shown) [IsoVA-3-glucuronide], the t1/2 in series [3] (setting [8]) is 1.6 ± 0.2 h. This compound yielded a Cmax in series [3] (serum, single 500 mg oral 13C5-C3G) of 35 ± 5 nM. Moreover, the Tmax in series [3] (setting [9]) is given as 4.3 ± 0.6 h. Moreover, the AUC0-48 in series [3] (serum, trapezoidal rule, single 500 mg oral 13C5-C3G, mean ± SEM) stood at 0.103 ± 0.013 µM·h. Moreover, in series [1], the Total recovery was 526.8 ± 92.2 µg and the Maximum concentration is 699 ± 90 nM. Moreover, in series [2], the “Recovery 0–6 h” value was 1.8 ^b μg, the “Recovery 6–24 h” value is listed as 1.3 ^b μg and the “Recovery 24–48 h” value is listed as 12.7 ± 10.9 ^h μg.

As to `COc1ccc(C(=O)O)cc1OS(=O)(=O)O` [IsoVA-3-sulfate], in series [1], the Total recovery came to 183.2 ± 93.1 µg and the Maximum concentration was 822 ± 557 nM. In addition, in series [2], the “Recovery 6–24 h” value is on record as 0.6 ± 0.3 ^h μg and the “Recovery 24–48 h” value is 176.1 ± 174.7 ^h μg.

For `COC(=O)c1ccc(O)c(OC)c1` [Methyl vanillate], the “Recovery 6–24 h” value in series [2] is reported as 35.1 ^b μg.

In series [1], `O=C(O)c1ccc(OS(=O)(=O)O)c(O)c1` [PCA-4-sulfate] had a Total recovery of 492.4 ± 193.0 µg and a Maximum concentration of 1244 ± 333 nM. Moreover, in series [2], the “Recovery 6–24 h” value is 23.0 ± 18.1 ^g μg and the “Recovery 24–48 h” value was 12.0 ± 10.2 ^g μg.

As for `COc1cc(-c2[o+]c3cc(O)cc(O)c3cc2OC2OC(CO)C(O)C(O)C2O)ccc1O` (stereo not shown) [Peonidin-3-glucoside], in series [1], the Tmax lay in the range of 1 to 2 h, the Total recovery was determined as 22.9 ± 10.6 µg and the Maximum concentration is on record as 76 ± 43 nM.

Turning to `COc1cc(C(=O)O)ccc1OS(=O)(=O)O` [VA-4-sulfate], in series [1], the Total recovery amounted to 449.1 ± 112.4 µg and the Maximum concentration was found to be 1682 ± 899 nM. Moreover, in series [2], the “Recovery 0–6 h” value is given as 0.6 ^b μg and the “Recovery 24–48 h” value was 69.0 ± 39.1 ^g μg.
